Assay results taken from the supplement of paper PMC11451515.

Assays:
Assay in all cases: AUC of viability dose-response curve (% viability x log10 dose units); higher = less sensitive
Conditions in all cases: 48 h
[1] = system: SEM cells
Outline: (§1)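 Seeding of medium-adapted leukemia cells was at 500 or 1000 cells/well in 1536-well plates, followed by 48 h at 37°C with library compounds in DMSO at 11 threefold doses from 47 μM to 0.79 nM. CellTiter-Glo One luminescence was normalised per plate to DMSO and cell-free wells and fitted as a four-parameter log-logistic function of log10 dose. Area under the curve was integrated by trapezoidal rule, with curves exceeding full viability scaled and curves failing quality control removed.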

[2] = system: P12-Ichikawa
Outline: as §1

[3] = system: NOMO1
Outline: as §1

[4] = RPMI 5 mM glucose + 10% dialyzed FBS

Row | SMILES | AUC of viability dose-response curve ([1]; HPLM + 10% dialyzed FBS) | AUC of viability dose-response curve ([1]; RPMI 5 mM glucose + 10% FBS) | AUC of viability dose-response curve [1, 4] | AUC of viability dose-response curve ([2]; HPLM + 10% dialyzed FBS) | AUC of viability dose-response curve ([2]; RPMI 5 mM glucose + 10% FBS) | AUC of viability dose-response curve [2, 4] | AUC of viability dose-response curve ([3]; HPLM + 10% dialyzed FBS) | AUC of viability dose-response curve ([3]; RPMI 5 mM glucose + 10% FBS) | AUC of viability dose-response curve [3, 4]
1 | CN1CCN(c2ccc([N+](=O)[O-])c3no[n+]([O-])c23)CC1 | 418 | 464 | 424 | 435 | 437 | 436 | 457 | 432 | 421
2 | C\C1=C(\C=C(C#N)/C(=O)N1)C2=C[N]3C=CN=C3C=C2 | 383 | 424 | 411 | 419 | 394 | 375 | 407 | 393 | 405
3 | CCC(C)(C)c1ccc(CC(C)CN2C[C@@H](C)O[C@@H](C)C2)cc1 (some centres undefined) | 356 | 369 | 398 | 424 | 417 | 380 | 422 | 368 | 397
4 | FC(F)c1nc2ccccc2n1-c1nc(N2CCOCC2)nc(N2CCOCC2)n1 | 325 | 351 | 326 | 413 | 367 | 394 | 260 | 329 | 333
5 | O=C(Nc1cc2cc[nH]c2cn1)c1ccccc1 | 359 | 335 | 364 | 360 | 414 | 386 | 366 | 385 | 401
6 | CNC1CCC(N(Cc2cccc(-c3ccncc3)c2)C(=O)c2sc3c(F)ccc(F)c3c2Cl)CC1 (centres undefined) | 455 | 464 | 445 | 467 | 466 | 463 | 453 | 470 | 466
7 | COc1cc2c(cc1OC)CC(=O)N(CCCN(C)C[C@H]1Cc3cc(OC)c(OC)cc31)CC2.Cl | 464 | 465 | 469 | 475 | 477 | 459 | 466 | 463 | 440
8 | CN[C@@H]1[C@H](O)[C@H](NC)[C@H]2O[C@@]3(O)C(=O)C[C@@H](C)O[C@H]3O[C@@H]2[C@H]1O | 465 | 445 | 458 | 457 | 450 | 446 | 438 | 424 | 467
9 | O=C(Nc1c(Cl)cncc1Cl)c1ccc(OC(F)F)c(OCC2CC2)c1 | 453 | 452 | 455 | 475 | 467 | 466 | 459 | 465 | 476
10 | NC/1=N/C2=C([NH]C=N2)C(=S)N1 | 458 | 457 | 345 | 441 | 433 | 409 | 457 | 451 | 402
11 | C[C@@]12C[C@@]3(O)O[C@@H](O1)[C@]1(COC(=O)c4ccccc4)[C@H]3C[C@@]12O[C@@H]1O[C@H](CO)[C@@H](O)[C@H](O)[C@H]1O | 456 | 454 | 463 | 469 | 467 | 469 | 436 | 463 | 463
12 | C/C=C(/C)C(=O)O[C@H]1C(C)=C[C@]23C(=O)[C@@H](C=C(CO)[C@@H](O)[C@]12O)[C@H]1[C@@H](C[C@H]3C)C1(C)C | 392 | 349 | 431 | 397 | 336 | 361 | 324 | 336 | 314
13 | COCCCN1CCC(NC(=O)c2cc(Cl)c(N)c3c2OCC3)CC1 | 453 | 451 | 454 | 465 | 467 | 473 | 460 | 456 | 468
14 | OC1CCC(Nc2ncc3nc(Nc4c(F)cc(F)cc4F)n([C@@H]4CCOC4)c3n2)CC1 (some centres undefined) | 474 | 452 | 458 | 468 | 465 | 468 | 465 | 446 | 448
15 | O=C(Nc1ccc(F)c(C(F)(F)F)c1)Nc1nnc(-c2ccncc2)s1 | 467 | 464 | 467 | 469 | 451 | 465 | 456 | 444 | 466
16 | O=C(Nc1ccccc1-c1cn2c(CN3CCNCC3)csc2n1)c1cnc2ccccc2n1 | 364 | 366 | 310 | 388 | 369 | 361 | 381 | 350 | 391

Row | SMILES | AUC of viability dose-response curve ([1]; HPLM + 10% dialyzed FBS) | AUC of viability dose-response curve ([1]; RPMI 5 mM glucose + 10% FBS) | AUC of viability dose-response curve [1, 4] | AUC of viability dose-response curve ([2]; HPLM + 10% dialyzed FBS) | AUC of viability dose-response curve ([2]; RPMI 5 mM glucose + 10% FBS) | AUC of viability dose-response curve [2, 4] | AUC of viability dose-response curve ([3]; HPLM + 10% dialyzed FBS) | AUC of viability dose-response curve ([3]; RPMI 5 mM glucose + 10% FBS) | AUC of viability dose-response curve [3, 4]
17 | FC1=CC=C(SC/2=N/N3\C=N/C(=O)/C(=C3/C=C2)C4=C(Cl)C=CC=C4Cl)C(=C1)F | 409 | 435 | 398 | 454 | 436 | 452 | 457 | 463 | 466
18 | Cc1cnc(NC(=O)Nc2cc(Br)c(C)cc2OC[C@@H]2CNCCO2)cn1 | 328 | 350 | 326 | 424 | 435 | 393 | 355 | 409 | 365
19 | Cc1cc2c(F)c(Oc3ncnn4cc(OC[C@@H](C)O)c(C)c34)ccc2[nH]1 | 394 | 372 | 380 | 442 | 454 | 448 | 459 | 453 | 446
20 | C[C@@H]1[C@H](O)[C@@H](C)/C=C/C=C/C=C/C=C/C=C/C=C/C=C/[C@H](O[C@@H]2O[C@H](C)[C@@H](O)[C@H](N)[C@@H]2O)C[C@@H]2O[C@](O)(C[C@@H](O)C[C@@H](O)[C@H](O)CC[C@@H](O)C[C@@H](O)CC(=O)O[C@H]1C)C[C@H](O)[C@H]2C(=O)O | 450 | 443 | 465 | 468 | 458 | 465 | 422 | 452 | 461
21 | Cc1[nH]c2ccccc2c1CCNCc1ccc(/C=C/C(=O)NO)cc1 | 265 | 251 | 273 | 298 | 292 | 304 | 300 | 311 | 312
22 | CCOC(=O)\C1=C(/C)N\C2=C(C1C3=CC=C(C=C3)C4=CC=CC=C4)\C(=O)CC(C)(C)C2 (centres undefined) | 461 | 451 | 450 | 457 | 457 | 444 | 438 | 465 | 447
23 | CC(C)=CC[C@@H](O)C/1=C/C(=O)C2=C(O)C=CC(=C2C1=O)O | 449 | 407 | 431 | 413 | 415 | 434 | 379 | 354 | 368
24 | COc1ccc(-c2ccc3c(N4CCOC[C@@H]4C)nc(N4CCOC[C@@H]4C)nc3n2)cc1CO | 310 | 310 | 316 | 353 | 296 | 311 | 293 | 359 | 337
25 | S=P(N1CC1)(N1CC1)N1CC1 | 455 | 446 | 441 | 452 | 470 | 448 | 468 | 458 | 468
26 | COc1cc2ncnc(Nc3ccc(F)c(Cl)c3)c2cc1NC(=O)/C=C/CN1CCCCC1 | 417 | 415 | 416 | 433 | 444 | 436 | 408 | 426 | 418
27 | O=C(NC[C@H](O)CO)c1ccncc1Nc1ccc(I)cc1F | 426 | 376 | 378 | 467 | 437 | 464 | 328 | 290 | 309
28 | Cc1cnc(-c2cc(N3CCN(C(=O)CC[S+](C)(=O)[O-])CC3)ncc2Cl)c(C)c1 | 426 | 453 | 427 | 466 | 475 | 469 | 404 | 470 | 455
29 | CC(N)C12CC3CC(CC(C3)C1)C2 (centres undefined) | 468 | 447 | 477 | 449 | 456 | 455 | 453 | 437 | 443
30 | COc1cc2nccc(Oc3ccc(NC(=O)NC4CC4)c(Cl)c3)c2cc1C(N)=O | 378 | 378 | 359 | 429 | 429 | 430 | 439 | 448 | 445
31 | C#C[C@]1(O)CC[C@H]2[C@@H]3CCc4cc(O)ccc4[C@H]3CC[C@@]21C | 442 | 440 | 448 | 441 | 418 | 410 | 444 | 442 | 429
